From US11661437B2, “Steroid derivative regulators, method for preparing the same, and uses thereof” (priority 2018, dated 2023) come the findings set out here.

Where two headings read alike, the source gives them in different places.

By IC50 is commonly meant the concentration at which inhibition is half-maximal. For orientation: MRT means the average time that molecules of a dose stay in the body. For orientation: Tmax means the time at which the peak concentration occurs.

One data set concerns GABA-A receptor. The data set is described as follows: 35S-TBPS binding assay on rat cerebral cortex cell membrane. More on the design: species or system Sprague-Dawley rat. Particulars: 2 nM 35S-TBPS, GABA added, read-out: 35S-TBPS bindng test, IC50 on inhibiting the TBPS binding activity. An outline of the steps: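 Male Sprague-Dawley rat cortical membranes in PBS were preincubated 5 min at 25 °C with compound (8-point 3-fold series […], 1% DMSO), then with GABA ([…]). 2 nM 35S-TBPS was added for 20 h at 4 °C, followed by GF/C filtration and scintillation counting. % inhibition was normalised to DMSO and 10 μM reference controls, with IC50 from a 4-parameter fit.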

The nature of data set [1]: Pharmacokinetic assay in Balb/c mice (plasma and brain tissue). The data set is classed as in vivo. The note with it: male, mouse, po. The protocol: Balb/c mice were used as test animals. The pharmacokinetic behavior in mice (plasma and brain tissue) of the compounds of Example 2, Example 5, Example 7, Example 12, Example 18, Example 23, Example 26, Example 38, Example 41, Example 50, Example 51 and Example 66 orally administrated at a dose of 5 mg/kg was studied.
Each group had 24 male Balb/c mice. After an overnight fast, Balb/c mice were administrated p.o. with the test compound at an administration dose of 5 mg/kg and an administration volume of 10 mL/kg.
0.2 ml of blood was taken from the heart before administration and at 0, 0.5, 1, 2, 4, 6, 8 and 24 hours after administration. The samples were stored in EDTA-K2 tubes, and centrifuged for 6 minutes at 4° C., 6000 rpm to separate the plasma. The plasma samples were stored at −80° C. The mice were sacrificed with CO2, and the whole brain tissue was taken out, weighed, placed in a 2 mL centrifuge tube and stored at −80° C.
1) 160 μL of acetonitrile was added to 40 μL of the plasma sample for precipitation, and then the mixture was centrifuged for 5-20 minutes at 3500×g.
2) 90 μL of acetonitrile containing the internal standard (100 ng/mL) was added to 30 μL of the plasma and brain homogenate samples for precipitation, and then the mixture was centrifuged for 8 minutes at 13000 rpm.
3) 70 μL of the treated supernatant was taken and added to 70 μL of water, and mixed by vortex for 10 minutes. 20 μL of the mixture was taken to analyze the concentration of the test compound by LC/MS/MS. LC/MS/MS analysis instrument: AB Sciex API 4000 Qtrap.
2.6 Liquid Chromatography Analysis • Liquid chromatography condition: Shimadzu LC-20AD pump. • Chromatographic column: Agilent ZORBAX XDB-C18 (50×2.1 mm, 3.5 μm); Mobile phase: Eluent A was 0.1% formic acid in water, and Eluent B was acetonitrile. • Flow rate: 0.4 mL/min • Elution time: 0-4.0 minutes the eluent is as follows:
The main parameters of pharmacokinetics were calculated by WinNonlin 6.1.

The mark [2] stands for this setting: Balb/c, in vivo, 5 mg/kg, Area under curve AUC0-t.
The mark [3] stands for this setting: Balb/c, in vivo, 5 mg/kg, Half-life t1/2.
Setting [4] is: Balb/c, in vivo, 5 mg/kg, Mean residence time MRT.
Where [5] appears, read: Balb/c, in vivo, 5 mg/kg, Peak time tmax.
Setting [6] is: Balb/c, in vivo, 5 mg/kg, Plasma concentration Cmax.

Consider `C[C@@]1(O)CC[C@@]2(F)[C@H](CC[C@H]3[C@@H]4CC[C@H](C(=O)Cn5cc(C#N)cn5)[C@@]4(C)CC[C@@H]32)C1` [Example 2, 1-(2-((3R,5R,8S,9S,10R,13S,14S,17S)-10-Fluoro-3-hydroxy-3,13-dimethylhexadecahydro-1H-cyclopenta[a]phenanthren-17-yl)-2-oxoethyl)-1H-pyrazole-4-carbonitrile], for which the 50% inhibitory concentration (IC50) with GABA-A receptor is 11.8 nM. Further, the AUC(0-t) in data set [1] (Balb/c, brain, 5 mg/kg, Balb/c mice, 5 mg/kg p.o., brain tissue, read-out: Area under curve AUC0-t) was found to be 1770 ng·h/mL; in data set [1] (Balb/c, plasma, 5 mg/kg, Balb/c mice, 5 mg/kg p.o., plasma, read-out: Area under curve AUC0-t), 2660 ng·h/mL. Further, the AUC(0-inf) in data set [1] (Balb/c, brain, 5 mg/kg, Balb/c mice, 5 mg/kg p.o., brain tissue, read-out: Area under curve AUC0-∞) is 1790 ng·h/mL; in data set [1] (Balb/c, plasma, 5 mg/kg, Balb/c mice, 5 mg/kg p.o., plasma, read-out: Area under curve AUC0-∞), 2710 ng·h/mL. The half-life in data set [1] (Balb/c, brain, 5 mg/kg, Balb/c mice, 5 mg/kg p.o., brain tissue, read-out: Half-life t1/2 (converted)) was 1.49 h; in data set [1] (Balb/c, plasma, 5 mg/kg, Balb/c mice, 5 mg/kg p.o., plasma, read-out: Half-life t1/2 (converted)), 1.49 h. For the same compound, the mean residence time (MRT) in data set [1] (Balb/c, brain, 5 mg/kg, Balb/c mice, 5 mg/kg p.o., brain tissue, read-out: Mean residence time MRT) worked out at 2.26 h; in data set [1] (Balb/c, plasma, 5 mg/kg, Balb/c mice, 5 mg/kg p.o., plasma, read-out: Mean residence time MRT), 2.49 h. Also, the Cmax is 655 ng/mL in data set [1] (Balb/c, brain, 5 mg/kg, Balb/c mice, 5 mg/kg p.o., brain tissue, read-out: Plasma concentration Cmax) and 846 ng/mL in data set [1] (Balb/c, plasma, 5 mg/kg, Balb/c mice, 5 mg/kg p.o., plasma, read-out: Plasma concentration Cmax). The Tmax in data set [1] (Balb/c mice, 5 mg/kg p.o., brain tissue, read-out: Peak time tmax) was found to be 1 h; in data set [1] (Balb/c mice, 5 mg/kg p.o., plasma, read-out: Peak time tmax), 1 h.

For `C[C@@]1(O)CC[C@@]2(F)[C@H](CC[C@H]3[C@@H]4CC[C@H](C(=O)CNc5ccc(F)cc5)[C@@]4(C)CC[C@@H]32)C1` [Example 23, 1-((3R,5R,8S,9S,10R,13S,14S,17S)-10-Fluoro-3-hydroxy-3,13-dimethylhexadecahydro-1H-cyclopenta[a]phenanthren-17-yl)-2-((4-fluorophenyl)amino)ethan-1-one], the IC50 in the data set with GABA-A receptor was 30.9 nM. Also, in data set [1] (Balb/c, in vivo, 5 mg/kg), the “Area under curve AUC0-t” value amounted to 1067.1 ng·h/mL, the “Half-life t1/2” value amounted to 1.36 h, the “Mean residence time MRT” value is recorded as 2.42 h and the “Plasma concentration Cmax” value was found to be 558.0 ng/mL. Further, the AUC(0-t) in data set [1] (setting [2]) is 545 ng·h/mL. In data set [1] (setting [3]), the half-life was 1.08 h. Further, in data set [1] (setting [4]), the mean residence time MRT came to 1.78 h. In addition, in data set [1] (setting [5]), the time to peak (Tmax) was found to be 0.5 h. This compound also showed a Cmax in data set [1] (setting [6]) of 408 ng/mL.

Regarding `C[C@@]1(O)CC[C@@]2(F)[C@H](CC[C@H]3[C@@H]4CC[C@H](C(=O)Cn5ccc(C(F)(F)F)n5)[C@@]4(C)CC[C@@H]32)C1` [Example 5, 1-((3R,5R,8S,9S,10R,13S,14S,17S)-10-Fluoro-3-hydroxy-3,13-dimethylhexadecahydro-1H-cyclopenta[a]phenanthren-17-yl)-2-(3-(trifluoromethyl)-1H-pyrazol-1-yl)ethan-1-one], the IC50 in the data set with GABA-A receptor turned out to be 8.3 nM. In data set [1] (Balb/c, in vivo, 5 mg/kg), the “Area under curve AUC0-t” value came out at 470.9 ng·h/mL, the “Area under curve AUC0-∞” value is 485.5 ng·h/mL, the “Half-life t1/2” value was determined as 0.94 h and the “Mean residence time MRT” value worked out at 1.74 h. The “Plasma concentration Cmax” value in data set [1] (Balb/c, in vivo, 5 mg/kg) turned out to be 233.7 ng/mL. In addition, the AUC(0-t) in data set [1] (setting [2]) is 515 ng·h/mL. In data set [1] (Balb/c, in vivo, 5 mg/kg, Area under curve AUC0-∞), the AUC(0-inf) was 524 ng·h/mL. Further, the half-life in data set [1] (setting [3]) is 1.16 h. This compound showed an MRT in data set [1] (setting [4]) of 1.94 h. The time to peak (Tmax) in data set [1] (setting [5]) turned out to be 0.5 h. In addition, the Cmax in data set [1] (setting [6]) was 242 ng/mL.
